Test system: VASP phosphorylation in rat thrombocytes
Assay: Western blot of VASP phosphorylation in rat thrombocytes
Type: cell-based
Conditions: 5 min incubation
Protocol: Rat thrombocytes (0.7×10^9 cell/ml) were incubated for 5 min with 100 μM sodium nitroprusside (SNP), with 10 μM prostaglandin E1(PgE1) or without either of these additions. The extracts of these rat thrombocytes were analyzed by Western blotting. […] Similar results are also obtained using mouse thrombocytes.

CCCCC[C@H](O)/C=C/[C@H]1[C@H](O)CC(=O)[C@@H]1CCCCCCC(=O)O [PgE1, prostaglandin E1]
Phosphorylation-dependent shift of VASP from 46 kDa to 50 kDa (serine 157 phosphorylation): also took place in rat thrombocytes | Phosphorylation-dependent signal given by the 16C2 antibody (serine 239 phosphorylation): also took place in rat thrombocytes
